#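 Following 48 hours of exposure in 96-well plates, responses at five concentrations were used to interpolate endpoints linearly. The concentration for 50% growth inhibition is given as GI50. TGI: total growth inhibition.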
# How the values were obtained:
# Assay in all cases: inhibition of tumour cell growth, NCI panel, 48 h
# PC-3 prostate = system: PC-3 prostate
# MOLT-4 leukemia = system: MOLT-4 leukemia
# KM12 colon = system: KM12 colon
# HCT-116 colon = system: HCT-116 colon
# SW-620 colon = system: SW-620 colon
# RXF 393 renal = system: RXF 393 renal
# TK-10 renal = system: TK-10 renal
# MDA-MB-435 = system: MDA-MB-435
# 786-0 renal = system: 786-0 renal
# UACC-257 melanoma = system: UACC-257 melanoma
# BT-549 breast = system: BT-549 breast
# NCI/ADR-RES ovarian = system: NCI/ADR-RES ovarian
# HT29 colon = system: HT29 colon
# U251 CNS = system: U251 CNS
# SK-MEL-28 melanoma = system: SK-MEL-28 melanoma
# SK-MEL-2 melanoma = system: SK-MEL-2 melanoma
# MALME-3M melanoma = system: MALME-3M melanoma
# EKVX NSCLC = system: EKVX NSCLC
# SF-295 CNS = system: SF-295 CNS
# HS 578T breast = system: HS 578T breast
# HOP-92 NSCLC = system: HOP-92 NSCLC
# OVCAR-4 ovarian = system: OVCAR-4 ovarian
# RPMI-8226 leukemia = system: RPMI-8226 leukemia
# NCI-H522 lung = system: NCI-H522 lung
# ACHN renal = system: ACHN renal
# HCC-2998 colon = system: HCC-2998 colon
# A549 NSCLC = system: A549 NSCLC
# SNB-75 CNS = system: SNB-75 CNS
# NCI-H23 lung = system: NCI-H23 lung
# SK-MEL-5 melanoma = system: SK-MEL-5 melanoma
# COLO 205 colon = system: COLO 205 colon
# SNB-19 CNS = system: SNB-19 CNS
# CAKI-1 renal = system: CAKI-1 renal
# IGROV1 ovarian = system: IGROV1 ovarian
# MDA-MB-231 breast = system: MDA-MB-231 breast
# SK-OV-3 ovarian = system: SK-OV-3 ovarian
# T-47D breast = system: T-47D breast
# OVCAR-8 ovarian = system: OVCAR-8 ovarian
# SF-268 CNS = system: SF-268 CNS
# MCF7 breast = system: MCF7 breast
# SN12C renal = system: SN12C renal
# DU-145 prostate = system: DU-145 prostate
# K-562 leukemia = system: K-562 leukemia
# HOP-62 NSCLC = system: HOP-62 NSCLC
# UACC-62 melanoma = system: UACC-62 melanoma
# OVCAR-5 ovarian = system: OVCAR-5 ovarian
# UO-31 renal = system: UO-31 renal
# A498 renal = system: A498 renal
# M14 melanoma = system: M14 melanoma
# NCI-H460 lung = system: NCI-H460 lung
# SF-539 CNS = system: SF-539 CNS
# CCRF-CEM leukemia = system: CCRF-CEM leukemia
# HL-60(TB) leukemia = system: HL-60(TB) leukemia
# OVCAR-3 ovarian = system: OVCAR-3 ovarian
# SR leukemia = system: SR leukemia
# HCT-15 colon = system: HCT-15 colon
# NCI-H226 lung = system: NCI-H226 lung
smiles,measurement,setting,value
C=C(C=O)[C@@H]1CC[C@]2(C(=O)O)CC[C@]3(C)C(CC[C@@H]4[C@@](C)(CCC#N)[C@H](C(=C)C=O)CC[C@]43C)[C@@H]12 (stereo partly specified),GI50,PC-3 prostate,1.95 µM
same,TGI,PC-3 prostate,5.28 µM
same,GI50,MOLT-4 leukemia,2.71 µM
same,TGI,MOLT-4 leukemia,13.7 µM
same,GI50,KM12 colon,3.22 µM
same,TGI,KM12 colon,10.6 µM
same,GI50,HCT-116 colon,1.8 µM
same,TGI,HCT-116 colon,3.46 µM
same,GI50,SW-620 colon,2.18 µM
same,TGI,SW-620 colon,4.79 µM
same,GI50,RXF 393 renal,1.98 µM
same,TGI,RXF 393 renal,3.68 µM
same,GI50,TK-10 renal,3.34 µM
same,TGI,TK-10 renal,13.5 µM
same,GI50,MDA-MB-435,3.21 µM
same,TGI,MDA-MB-435,11.4 µM
same,GI50,786-0 renal,1.86 µM
same,TGI,786-0 renal,3.8 µM
same,GI50,UACC-257 melanoma,1.8 µM
same,TGI,UACC-257 melanoma,3.88 µM
same,GI50,BT-549 breast,1.82 µM
same,TGI,BT-549 breast,3.57 µM
same,GI50,NCI/ADR-RES ovarian,3.87 µM
same,TGI,NCI/ADR-RES ovarian,34.5 µM
same,GI50,HT29 colon,1.99 µM
same,TGI,HT29 colon,4.03 µM
same,GI50,U251 CNS,1.88 µM
same,TGI,U251 CNS,3.84 µM
same,GI50,SK-MEL-28 melanoma,2.45 µM
same,TGI,SK-MEL-28 melanoma,6.22 µM
same,GI50,SK-MEL-2 melanoma,1.99 µM
same,TGI,SK-MEL-2 melanoma,4.01 µM
same,GI50,MALME-3M melanoma,2.53 µM
same,TGI,MALME-3M melanoma,8.01 µM
same,GI50,EKVX NSCLC,6.64 µM
same,TGI,EKVX NSCLC,23.9 µM
same,GI50,SF-295 CNS,3.07 µM
same,TGI,SF-295 CNS,11.6 µM
same,GI50,HS 578T breast,3.17 µM
same,TGI,HS 578T breast,18.9 µM
same,GI50,HOP-92 NSCLC,1.37 µM
same,TGI,HOP-92 NSCLC,3.55 µM
same,GI50,OVCAR-4 ovarian,4.22 µM
same,TGI,OVCAR-4 ovarian,23.5 µM
same,GI50,RPMI-8226 leukemia,2.63 µM
same,TGI,RPMI-8226 leukemia,7.26 µM
same,GI50,NCI-H522 lung,2.26 µM
same,TGI,NCI-H522 lung,6.2 µM
same,GI50,ACHN renal,3.26 µM
same,TGI,ACHN renal,10.5 µM
same,GI50,HCC-2998 colon,1.93 µM
same,TGI,HCC-2998 colon,3.81 µM
same,GI50,A549 NSCLC,7.29 µM
same,TGI,A549 NSCLC,23.9 µM
same,GI50,SNB-75 CNS,6.07 µM
same,TGI,SNB-75 CNS,22.3 µM
same,GI50,NCI-H23 lung,2.13 µM
same,TGI,NCI-H23 lung,4.87 µM
same,GI50,SK-MEL-5 melanoma,1.78 µM
same,TGI,SK-MEL-5 melanoma,3.33 µM
same,GI50,COLO 205 colon,10.9 µM
same,TGI,COLO 205 colon,27.7 µM
same,GI50,SNB-19 CNS,3.93 µM
same,TGI,SNB-19 CNS,18.3 µM
same,GI50,CAKI-1 renal,3.38 µM
same,TGI,CAKI-1 renal,15.4 µM
same,GI50,IGROV1 ovarian,2.82 µM
same,TGI,IGROV1 ovarian,8.47 µM
same,GI50,MDA-MB-231 breast,3.05 µM
same,TGI,MDA-MB-231 breast,9.1 µM
same,GI50,SK-OV-3 ovarian,8.49 µM
same,TGI,SK-OV-3 ovarian,23.1 µM
same,GI50,T-47D breast,3.28 µM
same,TGI,T-47D breast,15.2 µM
same,GI50,OVCAR-8 ovarian,2.59 µM
same,TGI,OVCAR-8 ovarian,7.06 µM
same,GI50,SF-268 CNS,6.22 µM
same,TGI,SF-268 CNS,26.2 µM
same,GI50,MCF7 breast,2.9 µM
same,TGI,MCF7 breast,12.1 µM
same,GI50,SN12C renal,3.2 µM
same,TGI,SN12C renal,15.2 µM
same,GI50,DU-145 prostate,3.72 µM
same,TGI,DU-145 prostate,12.7 µM
same,GI50,K-562 leukemia,2.76 µM
same,TGI,K-562 leukemia,9.34 µM
same,GI50,HOP-62 NSCLC,2.08 µM
same,TGI,HOP-62 NSCLC,4.67 µM
same,GI50,UACC-62 melanoma,2 µM
same,TGI,UACC-62 melanoma,4.88 µM
same,GI50,OVCAR-5 ovarian,2.37 µM
same,TGI,OVCAR-5 ovarian,6.69 µM
same,GI50,UO-31 renal,2.5 µM
same,TGI,UO-31 renal,8.02 µM
same,GI50,A498 renal,14.2 µM
same,TGI,A498 renal,29.3 µM
same,GI50,M14 melanoma,1.92 µM
same,TGI,M14 melanoma,4.1 µM
same,GI50,NCI-H460 lung,5.56 µM
same,TGI,NCI-H460 lung,19.8 µM
same,GI50,SF-539 CNS,2.91 µM
same,TGI,SF-539 CNS,9.31 µM
same,GI50,CCRF-CEM leukemia,2.78 µM
same,TGI,CCRF-CEM leukemia,8.75 µM
same,GI50,HL-60(TB) leukemia,2.02 µM
same,TGI,HL-60(TB) leukemia,7.8 µM
O=C(Nc1cccc(Cl)c1)Nc1nc2ccc([N+](=O)[O-])cc2o1,GI50,PC-3 prostate,2.18 µM
same,TGI,PC-3 prostate,9.12 µM
same,GI50,MOLT-4 leukemia,2.36 µM
same,TGI,MOLT-4 leukemia,7.71 µM
same,GI50,KM12 colon,3.17 µM
same,TGI,KM12 colon,> 100 µM
same,GI50,OVCAR-3 ovarian,2.51 µM
same,TGI,OVCAR-3 ovarian,11.4 µM
same,GI50,HCT-116 colon,2.59 µM
same,TGI,HCT-116 colon,10.3 µM
same,GI50,SW-620 colon,2.71 µM
same,TGI,SW-620 colon,> 100 µM
same,GI50,RXF 393 renal,1.66 µM
same,TGI,RXF 393 renal,5.16 µM
same,GI50,TK-10 renal,3.5 µM
same,TGI,TK-10 renal,8.43 µM
same,GI50,MDA-MB-435,2.88 µM
same,TGI,MDA-MB-435,> 100 µM
same,GI50,786-0 renal,2.49 µM
same,TGI,786-0 renal,7.77 µM
same,GI50,UACC-257 melanoma,2.25 µM
same,TGI,UACC-257 melanoma,18.3 µM
same,GI50,BT-549 breast,2.09 µM
same,TGI,BT-549 breast,7.79 µM
same,GI50,NCI/ADR-RES ovarian,2.66 µM
same,TGI,NCI/ADR-RES ovarian,8.84 µM
same,GI50,HT29 colon,3.08 µM
same,TGI,HT29 colon,> 100 µM
same,GI50,U251 CNS,2.71 µM
same,TGI,U251 CNS,> 100 µM
same,GI50,SK-MEL-28 melanoma,3.22 µM
same,TGI,SK-MEL-28 melanoma,> 100 µM
same,GI50,SK-MEL-2 melanoma,2.09 µM
same,TGI,SK-MEL-2 melanoma,6.11 µM
same,GI50,MALME-3M melanoma,2.49 µM
same,TGI,MALME-3M melanoma,36 µM
same,GI50,EKVX NSCLC,2.82 µM
same,TGI,EKVX NSCLC,> 100 µM
same,GI50,SF-295 CNS,1.99 µM
same,TGI,SF-295 CNS,6.02 µM
same,GI50,HS 578T breast,3.3 µM
same,TGI,HS 578T breast,54.4 µM
same,GI50,SR leukemia,2.69 µM
same,TGI,SR leukemia,7.84 µM
same,GI50,HOP-92 NSCLC,1.65 µM
same,TGI,HOP-92 NSCLC,6.04 µM
same,GI50,OVCAR-4 ovarian,2.56 µM
same,TGI,OVCAR-4 ovarian,> 100 µM
same,GI50,RPMI-8226 leukemia,1.48 µM
same,TGI,RPMI-8226 leukemia,5.02 µM
same,GI50,ACHN renal,3.23 µM
same,TGI,ACHN renal,12.7 µM
same,GI50,HCC-2998 colon,3.19 µM
same,TGI,HCC-2998 colon,48.3 µM
same,GI50,A549 NSCLC,3.06 µM
same,TGI,A549 NSCLC,> 100 µM
same,GI50,SNB-75 CNS,2.68 µM
same,TGI,SNB-75 CNS,9.8 µM
same,GI50,NCI-H23 lung,1.9 µM
same,TGI,NCI-H23 lung,7.09 µM
same,GI50,SK-MEL-5 melanoma,1.51 µM
same,TGI,SK-MEL-5 melanoma,4.19 µM
same,GI50,HCT-15 colon,2.46 µM
same,TGI,HCT-15 colon,> 100 µM
same,GI50,COLO 205 colon,2.4 µM
same,TGI,COLO 205 colon,7.82 µM
same,GI50,SNB-19 CNS,2.79 µM
same,TGI,SNB-19 CNS,86.5 µM
same,GI50,CAKI-1 renal,2.17 µM
same,TGI,CAKI-1 renal,7.56 µM
same,GI50,IGROV1 ovarian,2.83 µM
same,TGI,IGROV1 ovarian,> 100 µM
same,GI50,MDA-MB-231 breast,2.67 µM
same,TGI,MDA-MB-231 breast,8.54 µM
same,GI50,SK-OV-3 ovarian,2.7 µM
same,TGI,SK-OV-3 ovarian,8.33 µM
same,GI50,T-47D breast,1.47 µM
same,TGI,T-47D breast,7.59 µM
same,GI50,OVCAR-8 ovarian,3.12 µM
same,TGI,OVCAR-8 ovarian,> 100 µM
same,GI50,SF-268 CNS,3.04 µM
same,TGI,SF-268 CNS,> 100 µM
same,GI50,MCF7 breast,2.82 µM
same,TGI,MCF7 breast,> 100 µM
same,GI50,SN12C renal,2.28 µM
same,TGI,SN12C renal,7.43 µM
same,GI50,DU-145 prostate,3.53 µM
same,TGI,DU-145 prostate,> 100 µM
same,GI50,K-562 leukemia,3.02 µM
same,TGI,K-562 leukemia,> 100 µM
same,GI50,HOP-62 NSCLC,2.49 µM
same,TGI,HOP-62 NSCLC,9.14 µM
same,GI50,UACC-62 melanoma,1.54 µM
same,TGI,UACC-62 melanoma,4.81 µM
same,GI50,OVCAR-5 ovarian,4.32 µM
same,TGI,OVCAR-5 ovarian,> 100 µM
same,GI50,UO-31 renal,2.67 µM
same,TGI,UO-31 renal,7.82 µM
same,GI50,A498 renal,1.56 µM
same,TGI,A498 renal,4.5 µM
same,GI50,M14 melanoma,2.54 µM
same,TGI,M14 melanoma,22.8 µM
same,GI50,NCI-H226 lung,2.13 µM
same,TGI,NCI-H226 lung,5.42 µM
same,GI50,NCI-H460 lung,1.74 µM
same,TGI,NCI-H460 lung,5.88 µM
same,GI50,SF-539 CNS,2.75 µM
same,TGI,SF-539 CNS,7.32 µM
same,GI50,HL-60(TB) leukemia,2.09 µM
same,TGI,HL-60(TB) leukemia,4.99 µM
